Results published in US9687479B2, “Multisubstituted aromatic compounds as serine protease inhibitors” (VERSEON CORPORATION, priority 2013, dated 2017).

Assays:
[1] = Trans-corneal permeability in vitro across excised rabbit corneas (Franz chamber); format: in vitro ADME; conditions: excised rabbit cornea, compound in PBS, 37° C., four hours
Method: In this example, trans-corneal permeability of compounds are measured in-vitro across excised rabbit corneas. Excised rabbit cornea are acquired from Pel-Freez and delivered in DMEM culture media on ice overnight. The test apparatus is a curved 9 mm Franz chamber (Permegear) suitable for rabbit eyes. Test compound is prepared in PBS buffer. The compound solution is added to the donor chamber of the Franz chamber and the entire apparatus placed in an incubator at 37° C. for four hours. During incubation and at every subsequent hour, a sample is removed from the receiver chamber and analyzed by HPLC (Shimadzu Prominence) using a C18 column (Phenomenex 00E-4605-E0) in reverse phase with acetonitrile in water. The apparent permeability coefficient Papp (cm/s) is calculated as
where dM/dt is the flux (nmol/s) across the cell layers or cornea, A is the exposed surface area (cm^2) of the insert membrane of rabbit cornea, and C0 is the initial drug concentration (μM) in the donor compartment.

[2] = target: Recombinant human tissue kallikrein (KLK1) (Homo sapiens (Human), UniProt P06870); test: KLK1 kallikrein activity inhibition assay (Pro-Phe-Arg-AMC substrate); format: biochemical
Chain of Recombinant human tissue kallikrein (KLK1) (P06870 25-262): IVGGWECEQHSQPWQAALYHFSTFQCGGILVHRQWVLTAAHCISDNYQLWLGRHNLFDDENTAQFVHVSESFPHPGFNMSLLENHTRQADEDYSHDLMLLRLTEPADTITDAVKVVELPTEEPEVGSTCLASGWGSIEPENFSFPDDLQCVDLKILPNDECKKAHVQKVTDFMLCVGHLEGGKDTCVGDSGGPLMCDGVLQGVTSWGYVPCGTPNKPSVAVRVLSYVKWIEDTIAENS
Method: The KLK1 kallikrein activity reported herein (e.g., Tables B and C) was obtained as follows. Recombinant human tissue kallikrein (KLK1) was obtained from R&D Systems. […] KLK1 enzyme is activated by incubating 0.5 mg/ml KLK1 combined with 0.1 μg/ml thermolysin in a buffer of 0.05 M Tres (pH 7.5), 0.15 M NaCl, and 0.01 M CaCl2 for one hour at 37° C. The thermolysin is then deactivated by the addition of equal parts 20 mM 1, 10 phenanthroline solution in water. The activated KLK1 solution is then added to CHES buffer (0.05 M CHES, 0.15 M NaCl, 0.01 M CaCl2, pH 10) for a final concentration of 5 nM along with the test article and incubated for 10 minutes. […] Substrate activation is read 10 minutes after substrate addition using a Synergy H1 multifunction plate reader (Biotek) programmed with a 360 nm excitation wavelength and a 480 nm emission wavelength. Inhibitor response was established by adding test compound as ten point, three-fold serial dilutions, as known in the art. The IC50 was calculated by plotting the percent (%) inhibition against compound concentration and fitting the data to a constrained four parameter sigmoidal curve, as known in the art.

Human KLKB1 = Human KLKB1 (Homo sapiens (Human), UniProt P03952); test: KLKB1 kallikrein activity inhibition assay (chromogenic substrate S-2302); format: biochemical
Chain of Human KLKB1 (P03952 391-638 limits assumed): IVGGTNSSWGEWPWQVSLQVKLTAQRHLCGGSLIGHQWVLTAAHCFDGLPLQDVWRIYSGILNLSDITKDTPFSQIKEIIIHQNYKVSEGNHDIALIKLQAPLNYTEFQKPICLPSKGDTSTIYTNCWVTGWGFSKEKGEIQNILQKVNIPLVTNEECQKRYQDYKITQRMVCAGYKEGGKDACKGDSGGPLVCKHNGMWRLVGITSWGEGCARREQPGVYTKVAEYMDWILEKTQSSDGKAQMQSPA
Chain of Human KLKB1 (P03952 20-390 partner limits assumed): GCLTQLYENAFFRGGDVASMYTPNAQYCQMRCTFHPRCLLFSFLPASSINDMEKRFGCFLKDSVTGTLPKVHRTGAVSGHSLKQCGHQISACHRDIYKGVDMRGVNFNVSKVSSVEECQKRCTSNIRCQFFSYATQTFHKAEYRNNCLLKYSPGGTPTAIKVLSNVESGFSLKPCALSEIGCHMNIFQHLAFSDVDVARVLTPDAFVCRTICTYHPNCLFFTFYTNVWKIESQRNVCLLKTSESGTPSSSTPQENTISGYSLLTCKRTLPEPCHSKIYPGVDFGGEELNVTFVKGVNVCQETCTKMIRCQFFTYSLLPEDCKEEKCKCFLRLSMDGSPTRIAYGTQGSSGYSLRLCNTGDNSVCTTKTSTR
Procedure, shortened: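 Enzyme at a final 3 nM was assayed in 0.05 M Tris pH 7.4, 0.01 M NaCl and 0.2% PEG-8000 at room temperature, with compounds as ten-point threefold dilutions.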

Human thrombin = Human thrombin (Homo sapiens (Human), UniProt P00734); test: Thrombin protease activity inhibition assay (chromogenic substrate S-2238); format: biochemical; conditions: 3 nM thrombin, 125 μM S-2238, 10 min pre-incubation, RT
Procedure, shortened: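 Ten-point, three-fold serial dilutions of compound tested against 3 nM enzyme at RT in Tris buffer (0.05 M, pH 7.4) with 0.015 M NaCl and 0.01% PEG-8000.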

[3] = Pharmacokinetics in mice (i.v. and p.o.); format: in vivo, male CD-1 mice; conditions: male, CD-1, mouse, in vivo
Method: Each compound is administered intravenously (i.v.) as a single dose via tail vein or orally (p.o.) as a single dose via gastric gavage to male CD-1 mice of nominal weights between 20 g and 26 g. Nominal doses are 1 mg/kg and 5 mg/kg for i.v. and p.o., respectively. In some examples (dose type A), both p.o. and i.v. doses are prepared by dissolving the test compound in 5% dimethyl acetamide and diluted in tetraethylene glycol for a final concentration of 0.25 mg/mL. In other examples (dose type B), i.v. doses are prepared by dissolving test compounds in 20% dimethyl acetamide, 40% polyethylene glycol 300 and 40% phosphate buffered saline, and p.o. doses are prepared by dissolving test compounds in carboxymethyl cellulose suspension (1% by weight) in water and 2.5% dimethyl acetamide.
Animals are housed in standard holding cages with food and water available ad libitum except for animals used for p.o. dosing which are fasted overnight prior to dosing. Samples are taken in triplicate via cardiac puncture at times prior to dosing and at 0.083 (i.v. only), 0.25, 0.5, 1, 2, 4, 8, and 24 hours after administration. Plasma is obtained by centrifuge and stored frozen until analyzed by LC-MS/MS using a Shimadzu VP System HPLC coupled to a Applied Biosystems MDS SCIEX API 3000 triple quadrapole MS. Assay results are calibrated using reference samples prepared in a range between 1.5 and 5000 ng/mL.
Pharmacokinetic parameters are calculated from mean concentration values using a non-compartmental analysis as described in the following and as apparent to those of ordinary skill in the art. Half-lives (t1/2) and elimination rate constants (λ) are determined by log linear regression using equal weighting on the last three finite sample time points. Concentration at time zero (C0) for the i.v. data is established by the extrapolation of log linear regression using equal weighting on the first three sample time points. Area under the curve (AUC) values are calculated using linear trapezoidal integration. Systemic clearance (CL) is calculated as the ratio of dosage and AUC. […] Percent oral bioavailability (% F) is determined from the ratio of i.v. and p.o. AUC values weighted by dosage.

malignant breast tumors = conditions: treated mice, cited from earlier work

Papp at 4 h [1]	IC50 ([2]; Table C)	IC50 (Human KLKB1; Table C)	IC50 ([2]; Table B)	IC50 (Human KLKB1; Table B)	IC50 (Human thrombin)	AUC ([3]; iv, 1 mg/kg)	C0 ([3]; iv, 1 mg/kg)	Vd ([3]; iv, 1 mg/kg)	clearance ([3]; iv, 1 mg/kg)	half-life ([3]; iv, 1 mg/kg)	AUC ([3]; po, 5 mg/kg)	bioavailability ([3]; po, 5 mg/kg)	half-life ([3]; po, 5 mg/kg)	Compound	reduction in tumor volume (malignant breast tumors; at 4 weeks)	reduced tumor cells in the blood and liver micrometastases (malignant breast tumors)
5.7 ×10⁻⁶ cm/s	10 to 100 µM	< 0.1 µM												COc1ccccc1C(=O)n1nc(-c2ccccn2)nc1NCc1ccc(Cl)s1 [Cmpd 22]		
			10 to 100 µM	1 to 10 µM	< 0.1 µM	100 ng·h/mL	400 ng/mL	5 L/kg	133 mL/min/kg	30 min	80 ng·h/mL	10%	36 min	Cn1cccc(-c2cc(NCc3ccc(Cl)s3)n(C(=O)c3ccoc3)n2)c1=O [Cmpd 23, 3-(5-[(5-chlorothiophen-2-yl)methyl]amino-1-[(furan-3-yl)carbonyl]-1H-pyrazol-3-yl)-1-methyl-1,2-dihydropyridin-2-one]		
			10 to 100 µM	1 to 10 µM	< 0.1 µM	50 ng·h/mL	200 ng/mL	5 L/kg	167 mL/min/kg	18 min	20 ng·h/mL	8%	> 18 min	O=C(c1ccoc1)n1nc(-c2cccn(Cc3ccco3)c2=O)cc1NCc1ccc(Cl)s1 [Cmpd 26, 3-(5-[(5-chlorothiophen-2-yl)methyl]amino-1-[(furan-3-yl)carbonyl]-1H-pyrazol-3-yl)-1-(furan-2-ylmethyl)-1,2-dihydropyridin-2-one]		
														CCCCCCOC(=O)N=C(N)c1ccc(NCc2nc3cc(C(=O)N(CCC(=O)OCC)c4ccccn4)ccc3n2C)cc1 [dabigatran etexilate]	50%	50-60%
2.5 ×10⁻⁶ cm/s			10 to 100 µM	1 to 10 µM		100 ng·h/mL	300 ng/mL	10 L/kg	167 mL/min/kg	60 min	300 ng·h/mL	60%	360 min	O=C(c1ccoc1)n1nc(-c2ccc[nH]c2=O)cc1NCc1ccc(Cl)s1 [Cmpd 4, 3-(5-[(5-chlorothiophen-2-yl)methyl]amino-1-[(furan-3-yl)carbonyl]-1H-pyrazol-3-yl)-1,2-dihydropyridin-2-one]		
			10 to 100 µM	0.1 to 1 µM	< 0.1 µM	40 ng·h/mL	100 ng/mL	6 L/kg	167 mL/min/kg	18 min	10 ng·h/mL	9%	> 18 min	O=C(c1ccoc1)n1nc(-c2cccn(Cc3ccccn3)c2=O)cc1NCc1ccc(Cl)s1 [Cmpd 25, 3-(5-[(5-chlorothiophen-2-yl)methyl]amino-1-[(furan-3-yl)carbonyl]-1H-pyrazol-3-yl)-1-(pyridin-2-ylmethyl)-1,2-dihydropyridin-2-one]		
			> 100 µM	< 0.1 µM	< 0.1 µM									O=C(c1ccccc1Cl)n1nc(-c2cccn(Cc3cccnc3)c2=O)cc1NCc1ccc(Cl)s1 [Cmpd 247, 3-1-[(2-chlorophenyl)carbonyl]-5-[(5-chlorothiophen-2-yl)methyl]amino-1H-pyrazol-3-yl-1-(pyridin-3-ylmethyl)-1,2-dihydropyridin-2-one]		
			> 100 µM	1 to 10 µM	< 0.1 µM									CC(C)(C)C(=O)n1nc(-c2cccn(Cc3cccnn3)c2=O)cc1NCc1ccc(Cl)s1 [Cmpd 81, 3-(5-[(5-chlorothiophen-2-yl)methyl]amino-1-(2,2-dimethylpropanoyl)-1H-pyrazol-3-yl)-1-(pyridazin-3-ylmethyl)-1,2-dihydropyridin-2-one]		
